Measurements reported in patent EP4656642A1, “ESTROGEN RECEPTOR PROTEOLYSIS TARGETING CHIMERA COMPOUND AND USE THEREOF” (GAN & LEE PHARM CO., LTD, priority 2023, dated 2024).

Tests used:
Assay type in all cases: cell-based
T-47D cells = experiment: Inhibition of cell proliferation in T-47D cells (CCK-8, 6 days); conditions: 6 days of treatment
From the text: Test Example 2: Inhibitory effect of the PROTAC compounds provided in the present disclosure on cell proliferation in T-47D cells (source ATCC)
The complete medium required for T-47D cells was 1640 ( ATCC, Product number: A10491-01) basal medium containing 10% fetal bovine serum. T-47D cells were inoculated in 96-well plates at a density of 3,000 cells/well, and different concentrations of the PROTAC compounds 1-55 provided in the examples of the present disclosure and a positive control sample ARV-471 (source: Innochem) were prepared to treat cells, and the cells were treated at 37°C in a cell culture incubator with 5% CO2 for 6 days. Cell viability was detected using a CCK-8 kit (Beyotime, Product number: C0040) according to the manufacturer's instructions. […] Table 2 IC50 values for inhibition of the proliferation of T-47D cells by the PROTAC compounds provided by the present disclosure and the positive control sample

ERα [1] = target: T1, ERα (Homo sapiens, UniProt P03372); experiment: Degradation of ERα in MCF-7 cells (immunoblotting, 4 h)
T1 sequence (P03372 1-595): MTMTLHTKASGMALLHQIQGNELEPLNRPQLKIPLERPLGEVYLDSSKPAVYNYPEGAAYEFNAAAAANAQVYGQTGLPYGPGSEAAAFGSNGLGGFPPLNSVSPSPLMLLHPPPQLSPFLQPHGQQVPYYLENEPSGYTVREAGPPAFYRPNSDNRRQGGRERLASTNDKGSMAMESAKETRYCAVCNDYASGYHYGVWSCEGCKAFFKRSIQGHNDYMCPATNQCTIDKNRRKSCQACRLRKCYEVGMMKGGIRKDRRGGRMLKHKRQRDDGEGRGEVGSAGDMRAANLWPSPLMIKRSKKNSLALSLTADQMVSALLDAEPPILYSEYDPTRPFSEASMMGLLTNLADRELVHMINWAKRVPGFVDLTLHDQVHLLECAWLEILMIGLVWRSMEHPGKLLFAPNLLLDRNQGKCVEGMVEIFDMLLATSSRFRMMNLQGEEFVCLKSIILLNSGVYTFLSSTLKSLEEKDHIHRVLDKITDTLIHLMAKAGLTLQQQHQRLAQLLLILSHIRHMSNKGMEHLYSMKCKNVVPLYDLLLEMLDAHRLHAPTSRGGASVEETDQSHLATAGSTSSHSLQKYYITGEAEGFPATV
Outline: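 MCF-7 cells treated 4 h at 37°C with compounds at 0.15-1000nM final. ERα in lysates measured by immunoblot, with band grayscale normalized to an internal reference protein. Degradation rate calculated against DMSO-treated control.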

ERα [2] = target: T1, ERα; experiment: Degradation of ERα in T-47D cells (immunoblotting, 4 h); parameters: host or cells: T-47D
Outline: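 T-47D cells were treated with compound (final 0.15-1000 nM, DMSO) for 4 h at 37°C, 5% CO2. Cells were lysed in RIPA buffer with protease inhibitor, and ERα protein in the cleared lysate was measured by immunoblotting.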

MCF-7 cells = experiment: Inhibition of cell proliferation of MCF-7 cells (CCK-8, 9 days); conditions: treated for 9 days, CCK-8 kit (Table 6)
Outline: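 MCF-7 cells seeded at 800 cells/well in DMEM with 10% FBS, exposed to a range of compound concentrations for 9 days at 37°C, 5% CO2. Viability read by CCK-8; IC50 derived for proliferation inhibition.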

| IC50 (T-47D cells; Table 2) [nM] | Degradation rate (%) of ERα in MCF-7 cells (ERα [1]; 10nM compound) [%] | Degradation rate (%) of ERα in T-47D cells (ERα [2]; 10nM compound) [%] | IC50 (MCF-7 cells) [nM] | Degradation rate (%) of ERα in MCF-7 cells (ERα [1]; 1nM compound) [%] | Degradation rate (%) of ERα in T-47D cells (ERα [2]; 1nM compound) [%] | SMILES | IC50 (T-47D cells; Table 3) [nM] |
| --- | --- | --- | --- | --- | --- | --- | --- |
| – | 48 | 44 | 970 | 9 | 9 | O=C1CCC(N2C(=O)c3ccc4c(c3C2=O)OCC42CCN(C3CCC4(CC3)CCN(c3ccc([C@@H]5c6ccc(O)cc6CC[C@@H]5c5ccccc5)cc3)CC4)CC2)C(=O)N1 (stereo partly shown) [L4] | – |
| – | 4 | 45 | 830 | 6 | 12 | O=C1CCC(N2Cc3cc4c(cc3C2=O)C2(CCN(C3CCC5(CC3)CCN(c3ccc([C@@H]6c7ccc(O)cc7CC[C@@H]6c6ccccc6)cc3)CC5)CC2)CO4)C(=O)N1 (stereo partly shown) [L5] | – |
| – | 45 | 68 | 930 | 14 | 29 | O=C1CCC(N2Cc3ccc4c(c3C2=O)OCC2(CCN(C3CCC5(CC3)CN(c3ccc([C@@H]6c7ccc(O)cc7CC[C@@H]6c6ccccc6)cc3)C5)CC2)C4)C(=O)N1 (stereo partly shown) [L6] | – |
| – | -4 | 34 | 510 | 4 | 11 | O=C1CCC(N2C(=O)c3ccc4c(c3C2=O)OCC42CCN(C3CCC4(CC3)CN(c3ccc([C@@H]5c6ccc(O)cc6CC[C@@H]5c5ccccc5)cc3)C4)CC2)C(=O)N1 (stereo partly shown) [L7] | – |
| – | 29 | 49 | 1420 | 10 | 15 | O=C1CCC(N2Cc3ccc4c(c3C2=O)OCC2(CCN(C3CC5(CCN(c6ccc([C@@H]7c8ccc(O)cc8CC[C@@H]7c7ccccc7)cc6)CC5)C3)CC2)C4)C(=O)N1 (stereo partly shown) [L9] | – |
| – | 5 | 8 | 544 | -6 | 13 | O=C1CCC(N2Cc3c(ccc4c3OCC43CCN(C4CC5(C4)CN(c4ccc([C@@H]6c7ccc(O)cc7CC[C@@H]6c6ccccc6)cc4)C5)CC3)C2=O)C(=O)N1 (stereo partly shown) [L18] | – |
| – | 14 | 9 | 86 | 9 | 12 | O=C1CCC(N2C(=O)c3ccc4c(c3C2=O)OCC42CCN(C3CC4(C3)CN(c3ccc([C@@H]5c6ccc(O)cc6CC[C@@H]5c5ccccc5)cc3)C4)CC2)C(=O)N1 (stereo partly shown) [L19] | – |
| – | 6 | 41 | 2190 | -12 | 28 | O=C1CCC(N2Cc3c(ccc4c3OC3(CC4)CCN(C4CCC5(CC4)CCN(c4ccc([C@@H]6c7ccc(O)cc7CC[C@@H]6c6ccccc6)cc4)CC5)CC3)C2=O)C(=O)N1 (stereo partly shown) [L20] | – |
| – | -17 | 21 | 91 | -11 | 26 | O=C1CCC(N2Cc3c(ccc4c3OC3(CC4)CCN(C4CC5(CCN(c6ccc([C@@H]7c8ccc(O)cc8CC[C@@H]7c7ccccc7)cc6)CC5)C4)CC3)C2=O)C(=O)N1 (stereo partly shown) [L21] | – |
| – | 18 | 9 | 111 | 3 | -7 | O=C1CCC(N2Cc3c(ccc4c3OC3(CC4)CCN(C4CCC5(CC4)CN(c4ccc([C@@H]6c7ccc(O)cc7CC[C@@H]6c6ccccc6)cc4)C5)CC3)C2=O)C(=O)N1 (stereo partly shown) [L22] | – |
| 101 | – | – | – | – | – | O=C1CCC(N2C(=O)c3cc4c(cc3C2=O)OC2(CC4)CN(C3CC4(CCN(c5ccc(C6c7ccc(O)cc7CCC6c6ccccc6)cc5)CC4)C3)C2)C(=O)N1 (stereo not shown) [M9] | – |
| 14 | – | 54 | – | – | 22 | O=C1CCC(N2C(=O)c3cc4c(cc3C2=O)OC2(CC4)CN(C3CC4(CCN(c5ccc([C@@H]6c7ccc(O)cc7CC[C@@H]6c6ccccc6)cc5)CC4)C3)C2)C(=O)N1 (stereo partly shown) [M10] | – |
| – | 64 | 57 | 4.29 | 35 | 53 | O=C1CCC(N2Cc3c(ccc4c3OCC43CCN(C(=O)[C@H]4CC[C@@H](N(CC5CC5)CC5CCN(c6ccc([C@@H]7c8ccc(O)cc8CC[C@@H]7c7ccccc7)cc6)CC5)CC4)CC3)C2=O)C(=O)N1 (stereo partly shown) [N11] | – |
| 180 | – | – | – | – | – | O=C1CCC(N2C(=O)c3cc4c(cc3C2=O)OCC2(CCN(C3CC5(C3)CN(c3ccc(C6c7ccc(O)cc7CCC6c6ccccc6)cc3)C5)CC2)C4)C(=O)N1 (stereo not shown) [O2] | – |

The next lines start with the compound.

| SMILES | IC50 (T-47D cells; Table 2) [nM] | Degradation rate (%) of ERα in MCF-7 cells (ERα [1]; 10nM compound) [%] | Degradation rate (%) of ERα in T-47D cells (ERα [2]; 10nM compound) [%] | IC50 (MCF-7 cells) [nM] | Degradation rate (%) of ERα in MCF-7 cells (ERα [1]; 1nM compound) [%] | Degradation rate (%) of ERα in T-47D cells (ERα [2]; 1nM compound) [%] | IC50 (T-47D cells; Table 3) [nM] |
| --- | --- | --- | --- | --- | --- | --- | --- |
| O=C1CCC(N2Cc3cc4c(cc3C2=O)CCC2(CN(CC3CCC5(CC3)CCN(c3ccc([C@@H]6c7ccc(O)cc7CC[C@@H]6c6ccccc6)cc3)CC5)C2)O4)C(=O)N1 (stereo partly shown) [A3 8] | – | – | – | – | – | – | 15 |
| O=C1CCC(N2C(=O)c3cc4c(cc3C2=O)OC2(CC4)CCN(CC3CCN(c4ccc(C5c6ccc(O)cc6CCC5c5ccccc5)cc4)C3)CC2)C(=O)N1 (stereo not shown) [A9] | 24 | -24 | -25 | – | – | – | – |
| O=C1CCC(N2C(=O)c3cc4c(cc3C2=O)C2(CCN(C3CCN(c5ccc(C6c7ccc(O)cc7CCC6c6ccccc6)cc5)CC3)CC2)CO4)C(=O)N1 (stereo not shown) [A16] | 91 | -5 | -22 | – | – | – | – |
| CN(C(=O)CN1CCC2(CC1)COc1c2ccc2c1C(=O)N(C1CCC(=O)NC1=O)C2=O)C1CCC2(CC1)CN(c1ccc([C@@H]3c4ccc(O)cc4CC[C@@H]3c3ccccc3)cc1)C2 (stereo partly shown) [K44] | – | 56 | 66 | 936 | 1 | 36 | – |
| CN(C(=O)CN1CC2(CCc3cc4c(cc3O2)CN(C2CCC(=O)NC2=O)C4=O)C1)C1CCC2(CC1)CN(c1ccc([C@@H]3c4ccc(O)cc4CC[C@@H]3c3ccccc3)cc1)C2 (stereo partly shown) [K45] | – | 59 | 74 | 75.2 | 21 | 37 | – |
| O=C1CCC(N2Cc3c(ccc4c3OCC43CCN(CC(=O)N4CCC(OC5CCN(c6ccc([C@@H]7c8ccc(O)cc8CC[C@@H]7c7ccccc7)cc6)CC5)CC4)CC3)C2=O)C(=O)N1 (stereo partly shown) [K46] | – | 85 | 90 | 85 | 54 | 73 | – |
| O=C1CCC(N2Cc3c(ccc4c3OCC43CCN(C(=O)CN4CCC(OC5CCN(c6ccc([C@@H]7c8ccc(O)cc8CC[C@@H]7c7ccccc7)cc6)CC5)CC4)CC3)C2=O)C(=O)N1 (stereo partly shown) [K47] | – | 80 | 89 | 80.2 | 57 | 74 | – |
| O=C1CCC(N2Cc3c(ccc4c3OCC43CCN(C(=O)[C@H]4C[C@H](OC5CCN(c6ccc([C@@H]7c8ccc(O)cc8CC[C@@H]7c7ccccc7)cc6)CC5)C4)CC3)C2=O)C(=O)N1 (stereo partly shown) [K48] | – | 42 | 80 | 9210 | 20 | 47 | – |
| O=C1CCC(N2Cc3c(ccc4c3OCC43CCN(C4CCC(OC5CCN(c6ccc([C@@H]7c8ccc(O)cc8CC[C@@H]7c7ccccc7)cc6)CC5)CC4)CC3)C2=O)C(=O)N1 (stereo partly shown) [K50] | – | 72 | 84 | 83.3 | 19 | 52 | – |
